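Each compound was tested at five concentrations against cells in 96-well plates for 48 hours. GI50: concentration for 50% inhibition of growth.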 Calls of active or inactive are those of the source. Rule as the data show it: active = GI50 up to about 1.1 µM and inactive = higher.
Columns and labels:
Test in all cases: growth of human tumour cells (NCI), 48 h
NCI/ADR-RES = tested on: NCI/ADR-RES
NCI-H23 = tested on: NCI-H23
MDA-N = tested on: MDA-N
SNB-75 = tested on: SNB-75
RPMI-8226 = tested on: RPMI-8226
OVCAR-8 = tested on: OVCAR-8
MDA-MB-231 = tested on: MDA-MB-231
NCI-H522 = tested on: NCI-H522
EKVX = tested on: EKVX
MOLT-4 = tested on: MOLT-4
SK-MEL-28 = tested on: SK-MEL-28
Malme-3M = tested on: Malme-3M
SF-295 = tested on: SF-295
SNB-19 = tested on: SNB-19
NCI-H226 = tested on: NCI-H226
RXF 393 = tested on: RXF 393
UACC-62 = tested on: UACC-62
SK-MEL-2 = tested on: SK-MEL-2
HL-60 = tested on: HL-60

Measured: GI50

CC(C)[Si](OC1=C(C(=O)N(C)c2ccccc2Cl)CCCCC1)(C(C)C)C(C)C
inactive: NCI/ADR-RES > 100 µM | NCI-H23 > 100 µM | MDA-N > 100 µM | SNB-75 > 100 µM | RPMI-8226 > 100 µM | OVCAR-8 > 100 µM | MDA-MB-231 > 100 µM | NCI-H522 97.1 µM | EKVX > 100 µM | MOLT-4 > 100 µM | SK-MEL-28 > 100 µM | Malme-3M > 100 µM | SF-295 > 100 µM | SNB-19 > 100 µM | NCI-H226 > 100 µM | RXF 393 > 100 µM

CC1CC/C(=C\c2ccc(Cl)cc2)C2OC(N)=C(C#N)C(c3ccc(Cl)cc3)=C12 (centres undefined)
inactive: UACC-62 16.2 µM | NCI/ADR-RES 11.6 µM | NCI-H23 13.6 µM | MDA-N 14.7 µM | RPMI-8226 7.6 µM | OVCAR-8 13.9 µM | SK-MEL-2 10.8 µM | MDA-MB-231 10.4 µM | HL-60 2.88 µM | EKVX 5.55 µM | MOLT-4 4.37 µM | SK-MEL-28 16.1 µM | Malme-3M 14.5 µM | SNB-19 20.4 µM | NCI-H226 11 µM | RXF 393 14.6 µM

c1ccc2c3nnc(c2c1)SCCSCCCSCCS3
inactive: UACC-62 57.5 µM | NCI/ADR-RES 75.3 µM | NCI-H23 > 100 µM | MDA-N > 100 µM | SNB-75 3.52 µM | OVCAR-8 56.9 µM | SK-MEL-2 58.7 µM | MDA-MB-231 22.1 µM | HL-60 > 100 µM | NCI-H522 50.9 µM | EKVX > 100 µM | SK-MEL-28 > 100 µM | Malme-3M 29.6 µM | SF-295 31.4 µM | SNB-19 26.5 µM | NCI-H226 35.6 µM | RXF 393 38.5 µM

CCc1ccccc1NC(=O)C(=O)CC(=O)c1sc(Nc2ccccc2Cl)nc1C
inactive: UACC-62 > 100 µM | NCI/ADR-RES 25.8 µM | NCI-H23 30.3 µM | MDA-N 28.8 µM | RPMI-8226 19.2 µM | OVCAR-8 35.1 µM | SK-MEL-2 24.4 µM | MDA-MB-231 27 µM | HL-60 47 µM | NCI-H522 18.1 µM | EKVX 52.4 µM | MOLT-4 14.9 µM | SK-MEL-28 36 µM | SF-295 28.2 µM | SNB-19 39.1 µM | NCI-H226 29 µM | RXF 393 24.9 µM

CCCCCCCCCCCCCCCCCCNC(=O)C(N)Cc1ccc(OCc2ccccc2)cn1 (centres undefined)
inactive: UACC-62 16.7 µM | NCI/ADR-RES 20 µM | NCI-H23 16.8 µM | MDA-N 26.5 µM | SNB-75 27.4 µM | RPMI-8226 18.5 µM | OVCAR-8 15.8 µM | SK-MEL-2 17.1 µM | MDA-MB-231 20.9 µM | HL-60 15.7 µM | NCI-H522 18.7 µM | EKVX 22.6 µM | MOLT-4 16 µM | SK-MEL-28 24.1 µM | Malme-3M 20.6 µM | SF-295 24 µM | SNB-19 19.8 µM | RXF 393 20 µM

C=CC[C@]1(/C=N/O)CN(S(=O)(=O)CC[Si](C)(C)C)C[C@H]2CC=CC[C@H]21
inactive: UACC-62 16.6 µM | NCI/ADR-RES 39.8 µM | NCI-H23 27.7 µM | MDA-N 20.3 µM | SNB-75 21 µM | RPMI-8226 13.4 µM | OVCAR-8 24 µM | SK-MEL-2 15 µM | MDA-MB-231 24.4 µM | NCI-H522 15.8 µM | EKVX 25.7 µM | MOLT-4 16.4 µM | SK-MEL-28 22.6 µM | Malme-3M 20.5 µM | SF-295 15.6 µM | SNB-19 21.8 µM | NCI-H226 19.5 µM | RXF 393 13.6 µM

CCc1n[nH]c(=O)n1/N=C/c1ccc(/C=N/n2c(CC)n[nH]c2=O)cc1
inactive: UACC-62 > 100 µM | NCI/ADR-RES > 100 µM | NCI-H23 > 100 µM | MDA-N > 100 µM | RPMI-8226 > 100 µM | OVCAR-8 > 100 µM | SK-MEL-2 > 100 µM | MDA-MB-231 > 100 µM | HL-60 > 100 µM | NCI-H522 > 100 µM | EKVX > 100 µM | MOLT-4 > 100 µM | SK-MEL-28 > 100 µM | Malme-3M > 100 µM | SF-295 > 100 µM | SNB-19 > 100 µM | NCI-H226 > 100 µM | RXF 393 > 100 µM

CCOC(=O)c1cc(I)c(-c2cc(C)no2)n1C
inactive: UACC-62 59 µM | NCI/ADR-RES 36.2 µM | NCI-H23 44.1 µM | MDA-N 43.9 µM | SNB-75 49.8 µM | RPMI-8226 19.3 µM | OVCAR-8 59 µM | SK-MEL-2 > 100 µM | MDA-MB-231 36 µM | HL-60 26.1 µM | NCI-H522 33.4 µM | EKVX 27 µM | MOLT-4 21.2 µM | SK-MEL-28 > 100 µM | Malme-3M 28.1 µM | SF-295 55.7 µM | SNB-19 > 100 µM | NCI-H226 > 100 µM | RXF 393 15.4 µM

— ChEMBL document CHEMBL1201862, “PubChem BioAssay data set” (2004)
